Experimental data reported in the NIST ThermoML archive (doi:10.1016/j.jct.2008.10.007).

Tests used:
[1] = xn = mol fraction of the nth substance listed; settings: 298.15 K, 101 kPa, Liquid, Vibrating tube method
[2] = excess molar enthalpy (molar enthalpy of mixing); xn = mol fraction of the nth substance listed; settings: 298.15 K, 101 kPa, Liquid, Calvet calorimetry

CCCOC=O [propyl methanoate] + ClCCCCl
Settings | excess molar enthalpy [kcal/mol] | mass density [kg/m3]
[1], x1 = 0.0604 | – | 1161.58
[1], x1 = 0.1163 | – | 1145.6
[1], x1 = 0.1772 | – | 1128.25
[1], x1 = 0.2336 | – | 1112.22
[1], x1 = 0.2937 | – | 1095.19
[1], x1 = 0.3531 | – | 1078.45
[1], x1 = 0.4676 | – | 1046.35
[1], x1 = 0.5255 | – | 1030.24
[1], x1 = 0.5854 | – | 1013.57
[1], x1 = 0.6437 | – | 997.42
[1], x1 = 0.7051 | – | 980.49
[1], x1 = 0.7636 | – | 964.45
[1], x1 = 0.8238 | – | 947.98
[1], x1 = 0.8823 | – | 932.02
[1], x1 = 1 | – | 899.81
[2], x1 = 0.065 | -0.00359 | –
[2], x1 = 0.1452 | -0.00741 | –
[2], x1 = 0.2308 | -0.0129 | –
[2], x1 = 0.3182 | -0.0189 | –
[2], x1 = 0.3939 | -0.0237 | –
[2], x1 = 0.4578 | -0.0251 | –
[2], x1 = 0.5145 | -0.0272 | –
[2], x1 = 0.5379 | -0.027 | –
[2], x1 = 0.5862 | -0.0268 | –
[2], x1 = 0.6669 | -0.0246 | –
[2], x1 = 0.7509 | -0.021 | –
[2], x1 = 0.8484 | -0.0148 | –
[2], x1 = 0.9347 | -0.00765 | –

ClCCCCCCl [1,5-dichloropentane] + CCCOC=O
Settings | excess molar enthalpy [kcal/mol] | mass density [kg/m3]
[1], x2 = 0.1431 | – | 1073.06
[1], x2 = 0.215 | – | 1061.43
[1], x2 = 0.2831 | – | 1050.01
[1], x2 = 0.3476 | – | 1038.81
[1], x2 = 0.4101 | – | 1027.62
[1], x2 = 0.4756 | – | 1015.48
[1], x2 = 0.5351 | – | 1004.04
[1], x2 = 0.65 | – | 980.9
[1], x2 = 0.7551 | – | 958.34
[1], x2 = 0.8569 | – | 935.09
[1], x2 = 0.9046 | – | 923.69
[1], x2 = 0.953 | – | 911.75
[2], x2 = 0.0772 | 0.0148 | –
[2], x2 = 0.1733 | 0.0261 | –
[2], x2 = 0.2797 | 0.0335 | –
[2], x2 = 0.3611 | 0.0349 | –
[2], x2 = 0.4265 | 0.0339 | –
[2], x2 = 0.48 | 0.0323 | –
[2], x2 = 0.5257 | 0.0301 | –
[2], x2 = 0.5865 | 0.0263 | –
[2], x2 = 0.6476 | 0.0215 | –
[2], x2 = 0.7088 | 0.0163 | –
[2], x2 = 0.7665 | 0.0115 | –
[2], x2 = 0.8266 | 0.00717 | –
[2], x2 = 0.8827 | 0.00406 | –
[2], x2 = 0.9526 | 0.0012 | –

CCCOC=O [propyl methanoate] + ClCCCCCCCl
Settings | excess molar enthalpy [kcal/mol] | mass density [kg/m3]
[1], x1 = 0.0861 | – | 1054
[1], x1 = 0.1676 | – | 1044.21
[1], x1 = 0.2459 | – | 1034.25
[1], x1 = 0.3157 | – | 1024.9
[1], x1 = 0.3867 | – | 1014.88
[1], x1 = 0.4515 | – | 1005.28
[1], x1 = 0.5124 | – | 995.82
[1], x1 = 0.6287 | – | 976.43
[1], x1 = 0.6818 | – | 966.95
[1], x1 = 0.7826 | – | 947.72
[1], x1 = 0.8311 | – | 937.83
[1], x1 = 0.8777 | – | 927.92
[1], x1 = 0.9609 | – | 909.1
[1], x1 = 1 | – | 899.81
[2], x1 = 0.0891 | 0.021 | –
[2], x1 = 0.2066 | 0.0373 | –
[2], x1 = 0.3241 | 0.049 | –
[2], x1 = 0.4164 | 0.0523 | –
[2], x1 = 0.4832 | 0.0504 | –
[2], x1 = 0.5353 | 0.0473 | –
[2], x1 = 0.5847 | 0.0433 | –
[2], x1 = 0.6323 | 0.039 | –
[2], x1 = 0.6975 | 0.0323 | –
[2], x1 = 0.7658 | 0.0249 | –
[2], x1 = 0.8389 | 0.0165 | –
[2], x1 = 0.9059 | 0.00908 | –
[2], x1 = 0.9621 | 0.00382 | –

ClCCCCl [1,3-dichloropropane] + CCCOC(=O)CC
Settings | excess molar enthalpy [kcal/mol] | mass density [kg/m3]
[1], x2 = 0.0456 | – | 1160.2
[1], x2 = 0.09 | – | 1142.38
[1], x2 = 0.1357 | – | 1124.66
[1], x2 = 0.1827 | – | 1107.03
[1], x2 = 0.2323 | – | 1089.1
[1], x2 = 0.2857 | – | 1070.52
[1], x2 = 0.3377 | – | 1053.06
[1], x2 = 0.3926 | – | 1035.32
[1], x2 = 0.5112 | – | 999.15
[1], x2 = 0.5749 | – | 980.88
[1], x2 = 0.6382 | – | 963.43
[1], x2 = 0.7097 | – | 944.54
[1], x2 = 0.7804 | – | 926.67
[1], x2 = 0.8459 | – | 910.76
[1], x2 = 0.9232 | – | 892.71
[2], x2 = 0.0469 | -0.00932 | –
[2], x2 = 0.1103 | -0.0208 | –
[2], x2 = 0.1814 | -0.0361 | –
[2], x2 = 0.2562 | -0.0545 | –
[2], x2 = 0.3312 | -0.0691 | –
[2], x2 = 0.4023 | -0.0803 | –
[2], x2 = 0.4661 | -0.0882 | –
[2], x2 = 0.528 | -0.0927 | –
[2], x2 = 0.6046 | -0.0894 | –
[2], x2 = 0.706 | -0.0793 | –
[2], x2 = 0.816 | -0.0576 | –
[2], x2 = 0.9152 | -0.0318 | –
